The record followed here is US20170298056A1, “SMALL MOLECULE INHIBITORS OF HIV-1 ENTRY AND METHODS OF USE THEREOF” (Dana-Farber Cancer Institute, Inc., priority 2014, published 2017).

For one experiment, the system named is CCR5. The experiment can be described thus: Binding of soluble gp120 to Cf2Th-CCR5 cells (flow cytometry). Set-up: species or system human. The conditions noted are these: absence and presence of soluble CD4. Here is the method: Binding of soluble JR-FL gp120 to CCR5 was tested by incubating 1 million Cf2Th-CCR5 cells with 20 μg/mL purified gp120 in the presence or absence of 20 μg/mL sCD4 for 1 hour. After two washes, the cells were incubated with the 2G12 antibody followed by Allophycocyanin-conjugated F(ab′)2 fragment donkey anti-human IgG antibody to detect bound gp120. The cells were analyzed by FACS. All procedures were performed at room temperature.
(A flow cytometer gives signals particle by particle.)

The test system of another experiment is HIV-1JR-FL. As to the kind of experiment: Infection of human PBMC by HIV-1JR-FL. The class given is cell-based. The conditions noted are these: HIV-1JR-FL infection of human PBMC. Here is the method: Peripheral blood mononuclear cells (PBMC). Human blood was purchased from Research Blood Components, who obtained a consent firm from each donor, according to the American Association of Blood Banks guidelines, PBMC were isolated from the whole blood using a Ficoll-Paque gradient (Ficoll-Paque PLUS, Amersham Biosciences) and activated at concentration of 10^6 live cells/ml for 3 days in RPMI-PBMC medium (RPMI-1640 supplemented with 20% FBS, 10% IL-2 (Hemagen, Columbia, Md.), 100 μg/ml primocin (InvivoGen, San Diego, Calif.)) with 4 μg/ml phytohemagglutinin (Sigma-Aldrich, St. Louis, Mo.). In some cases, cells were frozen, thawed and activated prior to the assay.
Viral infection assay. Each test compound was serially diluted in DMSO in a 96-well B&W isoplate (PerkinElmer, Boston, Mass.) using an HP D300 Digital Dispenser, to a final volume of 450 nl. DMSO was used as a control. […] The activity of the firefly luciferase, which was used as a reporter protein in the system, was measured with a Centro LB 960 luminometer (Berthold Technologies, Oak Ridge, Tenn.). One hundred microliters of assay buffer (15 mM MgSO4, 15 mM KH2PO4/K2HPO4 pH 7.8, 1 mM ATP and 1 mM DTT) was injected to each well, followed by a 50 μl injection of 1 mM Dluciferin potassium salt (BD Pharmingen, San Jose, Calif.); luminescence was measured for 2 sec. […]

Experiment [1] relates to all CCR5-using HIV-1 isolates. The experiment can be described thus: Viral infection assay, panel of CCR5-using HIV-1 isolates. The class given is cell-based. The conditions noted are these: Cf2Th-CD4/CCR5 cells. Here is the method:
Production of recombinant HIV-1 expressing luciferase. […] After 48 hours, the supernatant was collected, buffered with 50 mM Hepes pH 7.4 (final concentration) and centrifuged for 5 minutes at 750×g and 4° C. The virus-containing supernatant was used directly or frozen at −80° C.
Viral infection assay. Each test compound was serially diluted in DMSO in a 96-well B&W isoplate (PerkinElmer, Boston, Mass.) using an HP D300 Digital Dispenser, to a final volume of 450 nl. DMSO was used as a control. Viruses pseudotyped with a specific Env were added to each well and incubated briefly at room temperature. Cf2Th-CD4/CCR5 cells were detached with StemPro Accutase Cell Dissociation Reagent (Invitrogen, cat #A11105-01), washed once, and 5000 cells were added to each well. […] Following incubation, the medium was aspirated and cells were lysed with 30 μl of Passive Lysis Buffer (Promega, cat #E1941). The activity of the firefly luciferase, which was used as a reporter protein in the system, was measured with a Centro LB 960 luminometer (Berthold Technologies, Oak Ridge, Tenn.). One hundred microliters of assay buffer (15 mM MgSO4, 15 mM KH2PO4/K2HPO4 pH 7.8, 1 mM ATP and 1 mM DTT) was injected to each well, followed by a 50 μl injection of 1 mM Dluciferin potassium salt (BD Pharmingen, San Jose, Calif.); luminescence was measured for 2 sec. […]

Like-named read-outs stand apart in the source and are kept apart here. Where only a bound is given, the exact number is not on record here.

One may read the IC50 as the concentration at which inhibition is half-maximal. On to `O=C(N/N=C/c1ccc(O)cc1)Nc1cccc2nsnc12` [Compound 18A], for which the “effect on gp120 binding to CCR5” value in the experiment with CCR5 is “No effect”. Further, the IC50 in the experiment on HIV-1JR-FL is 0.4 µM; in experiment [1] (read-out: IC50 values of the majority (75%) of CCR5-using HIV-1 isolates), below 6 µM; in experiment [1] (read-out: average IC50 for all CCR5-using HIV-1 isolates), 5.7 µM.
